# Measured values: patent US20260344668A1, “PHENYLPYRAZOLE COMPOUND, AND PLANT DISEASE CONTROL METHOD” (priority 2022, published 2026)
# Assays:
# [1] = tested on: soybean rust fungus (Phakopsora pachyrhizi) having an amino acid substitution of F129L in a mitochondrial cytochrome b protein; test: Test Example 7 Control Test Against Soybean Rust (leaf disk); assay type: in vivo; conditions: 200 ppm, 10 μL per soybean leaf disk (cultivar: Kurosengoku), inoculated after 1 day
# Description: (§1) The term of “non-treated well” in Test Example 4, Test Example 5, and Test Example 6 represents a well wherein a test was carried out under the same conditions as those described in each Test Example except for dispensing DMSO instead of a diluted solution with DMSO comprising the Present compound. Also, the term of “non-treated” in Test Examples 15 to 17 represents a test which was carried out under the same conditions as those described in each Test Example except for dispensing DMSO instead of a diluted solution with DMSO comprising the Present compound. Also, the term of “non-treated leaf disk” in Test Example 7 represents a leaf disk wherein a test was carried out under the same conditions as those described in the Test Example except for dispensing DMSO instead of a diluted solution with DMSO comprising the Present compound. Also, the term of “non-treated” in Test Example 10 and Test Example 11 means that a diluted solution with water of a formulation comprising the Present compound was not sprayed.
# A true leaf of a soybean (cultivar: Kurosengoku) was cut into a diameter of 1 cm to prepare each leaf disk. To each well of a 24 well microplate was dispensed 1 mL of an agar medium (agar concentration 1.2%), and then one of said leaf disk was placed on the agar medium in each well. To a mixture of Sorpol (registered trademark) 1200KX (0.5 μL), DMSO (4.5 μL), and xylene (5 μL) was added a DMSO solution (20 μL) comprising a test compound (10000 ppm), and the resulting mixture was mixed. The resulting mixture was diluted with ion exchange water to prepare a mixture comprising a prescribed concentration of the test compound.
# The resulting mixture was sprayed into each leaf disk at a ratio of 10 μL per leaf disk. After 1 day, an aqueous suspension of spores of soybean rust fungus (Phakopsora pachyrhizi) having an amino acid substitution of F129L in a mitochondrial cytochrome b protein (1.0×10^5/mL) was inoculated by spraying on each leaf disk. After the inoculation, the microplate was placed into an artificial climate chamber (Lighting: 6 hours, Lights-out: 18 hours, Temperature: 23° C., Humidity: 60%). After 1 day, the leaf disks were air-dried until water droplets on the surfaces of the leaf disks disappeared, and the microplate was placed into the artificial climate chamber again for 12 days. Then, lesion area of soybean rust was investigated. As a result, when the prescribed concentration was 200 ppm, each lesion area of leaf disk treated with any one of the Present compound 9, 10, 11, 13, 14, 15, 16, 17, 18, 20, 32, 33, 34, 35, 36, 37, 38, 39, 40, 42, 43, 44, 47, 48, 49, 50, 51, 52, 53, 55, 56, 57, 58, 62, 63, 64, 65, 66, 67, 68, 69, 70, 71, 73, 74, 75, 76, 77, 78, 79, 80, 81, 82, 83, 84, 85, 86, 87, 88, 89, 90, 91, 92, 93, 94, 95, 96, 97, 98, 99, 100, 101, or 102 as the test compound was 30% or less relative to the lesion area of non-treated leaf disk.
# [2] = tested on: Phakopsora pachyrhizi; test: Test Example 11 Control Test Against Soybean Rust (pot test, spraying before inoculation); assay type: in vivo; conditions: 200 ppm foliage spray, soybeans (Kurosengoku), inoculated after 2 to 5 days
# Description: as §1
# A plastic pot was filled with soil, soybeans (cultivar: Kurosengoku) were seeded thereto, and cultured in a greenhouse for 10 to 14 days. The Present compound 9, 10, 11, 13, 14, 15, 17, 18, 20, 21, 22, 23, 26, 27, 33, 34, 35, 36, 37, 38, 39, 40, 41, 42, 43, 44, 46, 47, 53, 54, 55, 56, 57, 58, 66, 67, 68, 69, 70, 71, 73, 74, 75, 76, 77, 78, 79, 80, 81, 82, 83, 84, 85, 86, 87, 88, 89, 90, 91, 92, 93, 94, 95, 96, 97, 98, 99, 100, 101, or 102 formulated according to the method described in the Formulation Example 1 was mixed with water in such a way that the concentration thereof was 200 ppm, and the resulting mixture was sprayed to foliage of the above soybeans so as to adequately adhere onto the surfaces of leaves of the above soybeans. After spraying the mixture, the soybeans were air-dried. After 2 to 5 days, an aqueous suspension of spores of Phakopsora pachyrhizi was inoculated by spraying to the soybeans. After the inoculation, the soybeans were placed in a greenhouse at 23° C. in daytime and at 20° C. in nighttime under a humid condition for 1 to 2 day(s), then cultured in a greenhouse for 12 days, and then a lesion area was investigated. As a result, the lesion area in the soybeans treated with each of the above Present compound was 30% or less relative to the lesion area in the non-treated soybeans.
# [3] = tested on: Cochliobolus miyabeanus; test: Test Example 6 Control Test Against Rice Brown Spot Fungus (96 well titer plate growth); assay type: cell-based; conditions: 1 μL of 150 ppm DMSO solution + 150 μL YB liquid medium, 23° C., 3 days, absorbance at 550 nm
# Description: as §1
# Each of the Present compound 17, 33, 36, 37, 39, 40, 41, 42, 43, 44, 48, 49, 50, 51, 52, 53, 62, 68, 69, 70, 71, 76, 77, 79, 80, 81, 82, 83, 84, or 97 was diluted with DMSO to obtain a diluted solution containing 150 ppm of each compound, and 1 μL of the diluted solution was dispensed into a titer plate (96 well), and thereto was then dispensed 150 μL of a YB liquid medium to which spores of Cochliobolus miyabeanus were inoculated in advance. This plate was cultured at 23° C. for 3 days, thereby allowing Cochliobolus miyabeanus to undergo proliferation, and the absorbance at 550 nm of each well of the titer plate was then measured to determine a degree of growth of Cochliobolus miyabeanus. As a result, the degree of growth in the well treated with each of the above Present compounds was 50% or less relative to the degree of growth in the non-treated well.
# [4] = tested on: Phakopsora pachyrhizi; test: Test Example 15 Control Test Against Soybean Rust Fungus (spore germination, 96 well titer plate); assay type: cell-based; conditions: treatment concentration 1 ppm, 23° C., several hours
# Description: as §1
# The Present compound was diluted with DMSO to obtain a diluted solution containing 150 ppm of the compound, and 1 μL of the diluted solution was dispensed into a titer plate (96 well), and thereto was then dispensed 149 μL of an aqueous suspension (1.0×10^4/mL) of spores of Phakopsora pachyrhizi to which spores of Phakopsora pachyrhizi were suspended in advance. This plate was cultured at 23° C. for several hours, and then germinated spores of Phakopsora pachyrhizi were counted. As a result, when the treatment concentration was 1 ppm, the number of germinated spores in each well comprising any one of the Present compound 1, 11, 17, 18, 20, 23, 30, 33, 34, 35, 36, 37, 38, 39, 40, 41, 42, 43, 44, 46, 47, 48, 49, 50, 51, 52, 53, 54, 55, 56, 57, 58, 62, 63, 64, 65, 66, 67, 68, 69, 70, 71, 72, 73, 74, 75, 76, 77, 78, 79, 80, 81, 82, 83, 84, 85, 86, 87, 88, 89, 90, 91, 92, 93, 94, 95, 96, 97, 98, 99, 100, 101, or 102 as the test compound was 50% or less relative to the number of germinated spores in the non-treated well.
Compound,lesion area relative to the lesion area of non-treated leaf disk [1] [%],lesion area relative to the lesion area in the non-treated soybeans [2] [%],degree of growth relative to the degree of growth in the non-treated well [3] [%],number of germinated spores relative to the non-treated well [4] [%]
O=S(=O)(c1cccc(F)c1)n1ccc(-c2cc(F)c(Br)c(F)c2)n1 [compound 17],≤ 30,≤ 30,≤ 50,≤ 50
CSc1ccc(-c2ccn(S(=O)(=O)c3cccs3)n2)cc1 [compound 41],–,≤ 30,≤ 50,≤ 50
Cn1nccc1S(=O)(=O)n1ccc(-c2cc(F)c(Br)c(F)c2)n1 [compound 48],≤ 30,–,≤ 50,≤ 50
O=S(=O)(c1ccco1)n1ccc(-c2ccc(Br)cc2)n1 [compound 49],≤ 30,–,≤ 50,≤ 50
O=S(=O)(c1ccco1)n1ccc(-c2ccc(Br)c(F)c2)n1 [compound 50],≤ 30,–,≤ 50,≤ 50
O=S(=O)(c1ccoc1)n1ccc(-c2ccc(Br)cc2)n1 [compound 51],≤ 30,–,≤ 50,≤ 50
O=S(=O)(c1ccoc1)n1ccc(-c2ccc(Br)c(F)c2)n1 [compound 52],≤ 30,–,≤ 50,≤ 50
O=S(=O)(c1cccs1)n1ccc(-c2ccc3c(c2)CCC3)n1 [compound 62],≤ 30,–,≤ 50,≤ 50
O=S(=O)(c1ccoc1)n1ccc(-c2cc(F)cc(F)c2)n1 [compound 74],≤ 30,≤ 30,–,≤ 50
O=S(=O)(c1cccs1)n1ccc(-c2cc(F)cc(F)c2)n1 [compound 75],≤ 30,≤ 30,–,≤ 50
O=S(=O)(c1ccco1)n1ccc(-c2ccccc2)n1 [compound 85],≤ 30,≤ 30,–,≤ 50
O=S(=O)(c1ccoc1)n1ccc(-c2ccccc2)n1 [compound 86],≤ 30,≤ 30,–,≤ 50
O=S(=O)(c1cccs1)n1ccc(-c2ccccc2)n1 [compound 87],≤ 30,≤ 30,–,≤ 50
O=S(=O)(c1ccco1)n1ccc(-c2ccc(F)cc2)n1 [compound 88],≤ 30,≤ 30,–,≤ 50
O=S(=O)(c1cccs1)n1ccc(-c2ccc(F)cc2)n1 [compound 90],≤ 30,≤ 30,–,≤ 50
O=S(=O)(c1ccco1)n1ccc(-c2ccc(F)c(F)c2)n1 [compound 91],≤ 30,≤ 30,–,≤ 50
O=S(=O)(c1ccco1)n1ccc(-c2cccc(F)c2)n1 [compound 94],≤ 30,≤ 30,–,≤ 50
O=S(=O)(c1ccoc1)n1ccc(-c2cccc(F)c2)n1 [compound 95],≤ 30,≤ 30,–,≤ 50
O=S(=O)(c1cccnc1)n1ccc(-c2cc(F)cc(F)c2)n1 [compound 98],≤ 30,≤ 30,–,≤ 50
O=S(=O)(c1cncc(F)c1)n1ccc(-c2cc(F)c(Br)c(F)c2)n1 [compound 100],≤ 30,≤ 30,–,≤ 50
O=S(=O)(c1cccnc1)n1ccc(-c2ccc(F)c(F)c2)n1 [compound 101],≤ 30,≤ 30,–,≤ 50
